Broadly, the IC50 is the midpoint of a concentration-inhibition curve. Low readings indicate greater potency, high ones weaker potency.

The record followed here is the Kinase Knowledgebase extract (Sharma et al. 2016).

The assay concerns the target PIK3CA (human) (UniProt P42336). The assay is described as follows: Assessment of PIK3CA Kinase Activity.

Chain of PIK3CA (human) (P42336 whole entry, looked up): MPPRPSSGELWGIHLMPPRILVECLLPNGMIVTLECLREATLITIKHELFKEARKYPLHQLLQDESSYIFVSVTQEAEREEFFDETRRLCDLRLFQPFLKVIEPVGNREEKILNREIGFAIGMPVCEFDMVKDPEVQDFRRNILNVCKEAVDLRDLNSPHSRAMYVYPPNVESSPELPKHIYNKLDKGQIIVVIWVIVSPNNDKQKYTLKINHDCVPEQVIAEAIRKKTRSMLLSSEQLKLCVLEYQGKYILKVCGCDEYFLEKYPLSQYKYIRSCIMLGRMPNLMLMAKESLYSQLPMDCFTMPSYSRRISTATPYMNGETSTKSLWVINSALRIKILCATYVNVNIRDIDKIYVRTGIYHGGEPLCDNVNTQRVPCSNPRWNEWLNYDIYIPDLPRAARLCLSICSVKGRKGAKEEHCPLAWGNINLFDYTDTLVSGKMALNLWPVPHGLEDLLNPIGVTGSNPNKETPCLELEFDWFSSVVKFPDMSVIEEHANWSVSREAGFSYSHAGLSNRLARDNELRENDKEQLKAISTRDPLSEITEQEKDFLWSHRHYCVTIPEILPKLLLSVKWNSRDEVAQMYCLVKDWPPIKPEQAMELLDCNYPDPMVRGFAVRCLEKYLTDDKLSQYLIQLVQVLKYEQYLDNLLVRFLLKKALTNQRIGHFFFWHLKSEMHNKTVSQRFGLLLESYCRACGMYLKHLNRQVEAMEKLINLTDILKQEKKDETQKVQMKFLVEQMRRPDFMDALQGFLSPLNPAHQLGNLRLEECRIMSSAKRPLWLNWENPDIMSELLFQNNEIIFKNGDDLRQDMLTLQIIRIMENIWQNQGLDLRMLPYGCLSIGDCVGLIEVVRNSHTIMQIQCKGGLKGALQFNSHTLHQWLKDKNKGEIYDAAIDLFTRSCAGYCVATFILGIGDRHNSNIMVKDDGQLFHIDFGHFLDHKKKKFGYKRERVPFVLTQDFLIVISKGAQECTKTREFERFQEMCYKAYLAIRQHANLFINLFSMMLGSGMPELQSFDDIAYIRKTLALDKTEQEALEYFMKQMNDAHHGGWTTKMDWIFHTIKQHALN

`COc1cncc(-c2cnc3sc(NCC4CCN(S(C)(=O)=O)CC4)nn23)c1`: the IC50 lay in the range of 0.05 to 1 µM.
The figure for `COc1cncc(-c2cnc3sc(NC4CCN(C(=O)OC(C)(C)C)CC4)nn23)c1` is 0.05 to 1 µM; for `Nc1ncc(-c2cnc3sc(N4CC5(CCNCC5)C4)nn23)cc1C(F)(F)F` it is 0.05 to 1 µM; for `CN(c1nn2c(-c3cnc(N)c(C(F)(F)F)c3)cnc2s1)C1CCC(=NOCCF)CC1` (stereo not given) it is 0.05 to 1 µM.
For `Nc1ncc(-c2cnc3sc(N4CCNCC4)nn23)cc1C(F)(F)F`, the IC50 came out at 1.3 µM.
With `Nc1ncc(-c2cnc3sc(N4CCCC(N)C4)nn23)cc1C(F)(F)F` (stereo not given) the figure was 0.05 to 1 µM; with `Nc1ncc(-c2cnc3sc(N4CCC(N)C4)nn23)cc1C(F)(F)F` (stereo not given), 1 µM; with `Nc1ncc(-c2cnc3sc(NC4CCN(S(=O)(=O)C5CNC5)CC4)nn23)cc1C(F)(F)F`, 0.014 µM.
The figure for `Nc1ncc(-c2cnc3sc(N4CCCC(CO)C4)nn23)cc1C(F)(F)F` (stereo not given) is 0.179 µM; for `CS(=O)(=O)N1CC2(CCCN(c3nn4c(-c5cnc(N)c(C(F)(F)F)c5)cnc4s3)C2)C1` it is 0.05 to 1 µM; for `NC(=O)C1CCN(c2nn3c(-c4cnc(N)c(C(F)(F)F)c4)cnc3s2)CC1` it is 0.05 to 1 µM.
Turning to `Nc1ncc(-c2cnc3sc(N4CCC(N)CC4)nn23)cc1C(F)(F)F`, the 50% inhibitory concentration (IC50) lay in the range of 0.05 to 1 µM.
The figure for `CC(C)(C)OC(=O)N1C[C@@H]2CN(c3nn4c(-c5cnc(N)c(C(F)(F)F)c5)cnc4s3)C[C@@H]2C1` is 0.119 µM.
With `CS(=O)(=O)NCC1CCN(c2nn3c(-c4cnc(N)c(C(F)(F)F)c4)cnc3s2)CC1` the figure was 0.05 to 1 µM.
The figure for `CN(c1nn2c(-c3cnc(N)c(C(F)(F)F)c3)cnc2s1)C1CCC(=NO)CC1` (stereo not given) is 0.082 µM; for `COc1cncc(-c2cnc3sc(NC4CCN(S(C)(=O)=O)CC4)nn23)c1` it is 0.05 to 1 µM.
`CS(=O)(=O)N1CCC(Nc2nn3c(-c4cnc(N)c(C(F)(F)F)c4)c(Cl)nc3s2)CC1` registered an IC50 of 0.024 µM.
The molecule `CS(=O)(=O)N1CC2CN(c3nn4c(-c5cnc(N)c(C(F)(F)F)c5)cnc4s3)CC2C1` (stereo not given) had an IC50 of 0.034 µM.
Regarding `COc1cncc(-c2cnc3sc(NCCCNS(C)(=O)=O)nn23)c1`, the IC50 lay in the range of 0.05 to 1 µM.
The molecule `CC(C)(C)OC(=O)N1CCC(CNc2nn3c(-c4cnc(N)c(C(F)(F)F)c4)cnc3s2)CC1` displayed an IC50 of 0.05 to 1 µM.
Turning to `CS(=O)(=O)N1CCC2(CC1)CN(c1nn3c(-c4cnc(N)c(C(F)(F)F)c4)cnc3s1)C2`, the IC50 fell in the range of 0.05 to 1 µM.
In turn, `CN(c1nn2c(-c3cnc(N)c(C(F)(F)F)c3)cnc2s1)C1CCN(C(=O)OC(C)(C)C)CC1` gave an IC50 of 0.05 to 1 µM.
In the case of `CN(c1nn2c(-c3cnc(N)c(C(F)(F)F)c3)cnc2s1)C1CCNCC1`, the IC50 lay within 0.05 to 1 µM.
As for `Nc1ncc(-c2cnc3sc(NCCN4CCNCC4)nn23)cc1C(F)(F)F`, the IC50 is 0.05 to 1 µM.
The figure for `Nc1ncc(-c2c(Cl)nc3sc(N[C@H]4CC[C@H](N)CC4)nn23)cc1C(F)(F)F` is 0.109 µM; for `CS(=O)(=O)NCCCNc1nn2c(-c3cnc(N)c(C(F)(F)F)c3)cnc2s1` it is 0.001 to 0.05 µM; for `CS(=O)(=O)N1CCC(Nc2nn3c(-c4cnc(N5CCNCC5)c(C(F)(F)F)c4)cnc3s2)CC1` it is 1.4 µM.
On to `CCNC(=O)N[C@H]1CC[C@H](Nc2nn3c(-c4cnc(N)c(C(F)(F)F)c4)cnc3s2)CC1`, for which the 50% inhibitory concentration (IC50) stood at 0.005 µM.
In turn, `Nc1ncc(-c2cnc3sc(N[C@H]4CC[C@H](N)CC4)nn23)cc1C(F)(F)F` came in with a half-inhibitory concentration (IC50) of 0.042 µM.
Regarding `CN(c1nn2c(-c3cnc(N)c(C(F)(F)F)c3)cnc2s1)C1CCN(S(C)(=O)=O)CC1`, the IC50 was 0.062 µM.
As for `Nc1ncc(-c2cnc3sc(N4CCC(C(=O)O)CC4)nn23)cc1C(F)(F)F`, the IC50 fell in the range of 0.05 to 1 µM.
The molecule `CC(C)(C)OC(=O)N1CCC(Nc2nn3c(-c4cnc(N)c(C(F)(F)F)c4)cnc3s2)CC1` gave an IC50 of 0.05 to 1 µM.
`Nc1ncc(-c2cnc3sc(N[C@H]4CC[C@@H](N)CC4)nn23)cc1C(F)(F)F` returned an IC50 of 0.001 to 0.05 µM.
`CNC(=O)C1CCCN(c2nn3c(-c4cnc(N)c(C(F)(F)F)c4)cnc3s2)C1` (stereo not given) yielded an IC50 of 0.213 µM.
Consider `c1cc(-c2cnc3sc(N4CCOCC4)nn23)c2cn[nH]c2c1`, for which the 50% inhibitory concentration (IC50) was in the range of 0.05 to 1 µM.
In turn, `CC(C)(C)OC(=O)N1CCN(CCNc2nn3c(-c4cnc(N)c(C(F)(F)F)c4)cnc3s2)CC1` returned an IC50 of 0.086 µM.
With `CCNC(=O)N1CCC(N(C)c2nn3c(-c4cnc(N)c(C(F)(F)F)c4)cnc3s2)CC1` the figure was 0.05 to 1 µM; with `CN1CCN(c2ncc(-c3cnc4sc(NC5CCN(S(C)(=O)=O)CC5)nn34)cc2C(F)(F)F)CC1`, 23 µM; with `Nc1ncc(-c2cnc3sc(NC[C@H]4CC[C@H](O)CC4)nn23)cc1C(F)(F)F`, 0.129 µM.
Regarding `Nc1ncc(-c2cnc3sc(NC4CCNCC4)nn23)cc1C(F)(F)F`, the half-inhibitory concentration (IC50) was determined as 0.067 µM.
On to `C[C@]1(O)CC[C@H](Nc2nn3c(-c4cnc(N)c(C(F)(F)F)c4)cnc3s2)CC1`, for which the IC50 was in the range of 0.001 to 0.05 µM.
In turn, `CS(=O)(=O)NC1CCN(c2nn3c(-c4cnc(N)c(C(F)(F)F)c4)cnc3s2)CC1` yielded a concentration for half-maximal inhibition (IC50) of 0.162 µM.
With `COc1cncc(-c2cnc3sc(NC4CCNCC4)nn23)c1` the figure was 0.05 to 1 µM; with `CS(=O)(=O)N1CCC(Nc2nn3c(-c4cncc(C#N)c4)cnc3s2)CC1`, 0.05 to 1 µM.
In the case of `CC(C)(C)OC(=O)N1CCC2(CC1)CC(Nc1nn3c(-c4cnc(N)c(C(F)(F)F)c4)cnc3s1)C2`, the IC50 is 0.05 to 1 µM.
The figure for `Nc1ncc(-c2cnc3sc(N4CCC5(CCNCC5)CC4)nn23)cc1C(F)(F)F` is 0.141 µM; for `CC(C)(C)OC(=O)NC1CCCN(c2nn3c(-c4cnc(N)c(C(F)(F)F)c4)cnc3s2)C1` (stereo not given) it is 0.23 µM.
For `CS(=O)(=O)NC1CCN(c2nn3c(-c4cnc(N)c(C(F)(F)F)c4)cnc3s2)C1` (stereo not given), the IC50 lay in the range of 0.05 to 1 µM.
The figure for `CO[C@H]1CC[C@H](N(C)c2nn3c(-c4cnc(N)c(C(F)(F)F)c4)cnc3s2)CC1` is 0.027 µM; for `CC(C)(C)OC(=O)N1CCC2(CC1)CCN(c1nn3c(-c4cnc(N)c(C(F)(F)F)c4)cnc3s1)CC2` it is 1.6 µM; for `Nc1ccc(-c2cnc3sc(N[C@H]4CC[C@H](O)CC4)nn23)cn1` it is 0.05 to 1 µM.
With `CCNC(=O)NCCNc1nn2c(-c3cnc(N)c(C(F)(F)F)c3)cnc2s1` the figure was 0.05 to 1 µM.
The figure for `NCC(=O)O[C@H]1CC[C@H](Nc2nn3c(-c4cnc(N)c(C(F)(F)F)c4)cnc3s2)CC1` is 0.001 to 0.05 µM; for `CS(=O)(=O)N1CCN2CCN(c3nn4c(-c5cnc(N)c(C(F)(F)F)c5)cnc4s3)CC2C1` (stereo not given) it is 0.094 µM; for `CS(=O)(=O)N1CCN(c2nn3c(-c4cnc(N)c(C(F)(F)F)c4)cnc3s2)CC1` it is 0.05 to 1 µM.
As for `Nc1ncc(-c2cnc3sc(N4CCCC5(CCNCC5)C4)nn23)cc1C(F)(F)F`, the IC50 lay within 0.05 to 1 µM.
In the case of `CC(C)(C)OC(=O)N[C@H]1CC[C@@H](Nc2nn3c(-c4cnc(N)c(C(F)(F)F)c4)cnc3s2)CC1`, the 50% inhibitory concentration (IC50) lay in the range of 0.05 to 1 µM.
`Nc1ncc(-c2cnc3sc(N4C[C@H]5CNC[C@H]5C4)nn23)cc1C(F)(F)F` registered an IC50 of 0.05 to 1 µM.
Consider `Nc1ncc(-c2cnc3sc(N[C@H]4CC[C@@H](O)CC4)nn23)cc1C(F)(F)F`, for which the IC50 is 0.077 µM.
With `COC(=O)C1CCN(c2nn3c(-c4cnc(N)c(C(F)(F)F)c4)cnc3s2)CC1` the figure was 0.297 µM; with `Nc1ncc(-c2cnc3sc(N4CCCC(C(=O)O)C4)nn23)cc1C(F)(F)F` (stereo not given), 0.05 to 1 µM.
The figure for `CS(=O)(=O)NCC1CCCN(c2nn3c(-c4cnc(N)c(C(F)(F)F)c4)cnc3s2)C1` (stereo not given) is 0.102 µM.
As for `NCCNc1nn2c(-c3cnc(N)c(C(F)(F)F)c3)cnc2s1`, the IC50 is 0.05 to 1 µM.
`CN1CCN(C(=O)NCCNc2nn3c(-c4cnc(N)c(C(F)(F)F)c4)cnc3s2)CC1` showed a half-inhibitory concentration (IC50) of 0.262 µM.
Molecule `Nc1ncc(-c2cnc3sc(NCC4CCNCC4)nn23)cc1C(F)(F)F` came in with a half-inhibitory concentration (IC50) of 0.05 to 1 µM.
Regarding `Nc1ncc(-c2cnc3sc(NC4CC5(CCNCC5)C4)nn23)cc1C(F)(F)F`, the IC50 came out at 0.017 µM.
The figure for `CC(C)(C)OC(=O)N[C@H]1CC[C@H](Nc2nn3c(-c4cnc(N)c(C(F)(F)F)c4)cnc3s2)CC1` is 0.012 µM; for `CC(C)(C)OC(=O)NC1CCN(c2nn3c(-c4cnc(N)c(C(F)(F)F)c4)cnc3s2)C1` (stereo not given) it is 0.177 µM.
In the case of `CC(C)(C)OC(=O)N1CCC2(CCCN(c3nn4c(-c5cnc(N)c(C(F)(F)F)c5)cnc4s3)C2)CC1`, the 50% inhibitory concentration (IC50) is 0.05 to 1 µM.
The molecule `Cc1cncc(-c2cnc3sc(NC4CCN(S(C)(=O)=O)CC4)nn23)c1` displayed a 50% inhibitory concentration (IC50) of 0.05 to 1 µM.
`Nc1ncc(-c2cnc3sc(N4CCN5CCNCC5C4)nn23)cc1C(F)(F)F` (stereo not given): the IC50 came out at 0.085 µM.
`CN(c1nn2c(-c3cnc(N)c(C(F)(F)F)c3)cnc2s1)[C@H]1CC[C@](C)(O)CC1` returned a concentration for half-maximal inhibition (IC50) of 0.205 µM.
The figure for `NCC1CCCN(c2nn3c(-c4cnc(N)c(C(F)(F)F)c4)cnc3s2)C1` (stereo not given) is 0.05 to 1 µM.
The figure for `CN(c1nn2c(-c3cnc(N)c(C(F)(F)F)c3)cnc2s1)[C@H]1CC[C@@](C)(O)CC1` is 0.05 to 1 µM; for `CCNC(=O)NC1CCCN(c2nn3c(-c4cnc(N)c(C(F)(F)F)c4)cnc3s2)C1` (stereo not given) it is 0.483 µM; for `CCNC(=O)N[C@H]1CC[C@@H](Nc2nn3c(-c4cnc(N)c(C(F)(F)F)c4)cnc3s2)CC1` it is 0.063 µM.
Regarding `CS(=O)(=O)N1CCC(N(CCN2CCCC2)c2nn3c(-c4cnc(N)c(C(F)(F)F)c4)cnc3s2)CC1`, the half-inhibitory concentration (IC50) was 0.001 to 0.05 µM.
As for `Nc1ncc(-c2cnc3sc(N[C@H]4CC[C@H](NS(=O)(=O)c5ccc(F)cc5F)CC4)nn23)cc1C(F)(F)F`, the IC50 was in the range of 0.05 to 1 µM.
Consider `CC(=O)N[C@H]1CC[C@@H](Nc2nn3c(-c4cnc(N)c(C(F)(F)F)c4)cnc3s2)CC1`, for which the 50% inhibitory concentration (IC50) fell in the range of 0.05 to 1 µM.
The figure for `Nc1ncc(-c2cnc3sc(N4CCC(O)CC4)nn23)cc1C(F)(F)F` is 0.05 to 1 µM; for `NCC1CCN(c2nn3c(-c4cnc(N)c(C(F)(F)F)c4)cnc3s2)CC1` it is 0.05 to 1 µM; for `CC(C)(C)OC(=O)NCC1CCN(c2nn3c(-c4cnc(N)c(C(F)(F)F)c4)cnc3s2)CC1` it is 0.05 to 1 µM.
`Nc1ncc(-c2cnc3sc(NC4CCC(=NOCCF)CC4)nn23)cc1C(F)(F)F` (stereo not given) came in with an IC50 of 0.001 to 0.05 µM.
As for `CC(C)S(=O)(=O)N1CCC(Nc2nn3c(-c4cnc(N)c(C(F)(F)F)c4)cnc3s2)CC1`, the IC50 was determined as 0.291 µM.
As to `CCNC(=O)N[C@H]1CC[C@H](Nc2nn3c(-c4cnc(N)c(C(F)(F)F)c4)c(Cl)nc3s2)CC1`, the concentration for half-maximal inhibition (IC50) fell in the range of 0.001 to 0.05 µM.
